Reference: ChEMBL document CHEMBL1136768, “Structure-activity relationships of (S,Z)-2-aminopurine methylenecyclopropane analogues of nucleosides. Variation of purine-6 substituents and activity against herpesviruses and hepatitis B virus” (J Med Chem, 2003)

Legend:
Human betaherpesvirus 5 = experiment: Concentration inhibiting the replication of HCMV in HFF cells by plaque reduction assay; conditions: Human betaherpesvirus 5, HFF
Human alphaherpesvirus 2 = experiment: Concentration inhibiting the replication of HSV-2 in Vero cells.; format: functional, organism-based; conditions: Human alphaherpesvirus 2, Vero
Human gammaherpesvirus 4 [1] = experiment: Concentration inhibiting the replication of EBV in H-1 cells by DNA hybridization assay; format: functional, organism-based; conditions: human gammaherpesvirus 4, H-1
Hepatitis B virus = experiment: Inhibition of the replication of HBV in 2.2.15 cells, by DNA hybridization assay; format: functional, organism-based; conditions: HepG2 2.2.15
HFF [2] = experiment: Cytotoxicity against proliferating HFF cells; format: functional; conditions: Homo sapiens
Murid betaherpesvirus 1 = experiment: Concentration inhibiting the replication of MCMV in MEF cells; format: functional, organism-based; conditions: Murid betaherpesvirus 1, MEF
MEF = experiment: Cytotoxicity in uninfected MEF cells; format: functional; conditions: Mus musculus
Daudi [3] = experiment: Cytotoxicity in uninfected Daudi cells; format: functional; conditions: Homo sapiens
CCRF-CEM = experiment: Cytotoxicity in uninfected CEM cells; format: functional; conditions: Homo sapiens
Human alphaherpesvirus 1 [4] = experiment: Concentration inhibiting the replication of HSV-1 in Vero cells determined by plaque reduction assay; format: functional, organism-based, herpes simplex virus; conditions: Human alphaherpesvirus 1, Vero
Human gammaherpesvirus 4 [5] = experiment: Concentration inhibiting the replication of EBV in Daudi cells; format: functional, organism-based; conditions: human gammaherpesvirus 4, Daudi
Human alphaherpesvirus 1 [6] = experiment: Concentration inhibiting the replication of HSV-1 in BSC-1 cells determined by ELISA assay; format: functional, organism-based, herpes simplex virus; conditions: Human alphaherpesvirus 1, BSC-1
HFF [7] = experiment: Cytotoxicity was scored on uninfected HFF cells not affected by virus in the HCMV (AD169 strain) by neutral red uptake; format: functional
Daudi [8] = experiment: Concentration inhibiting the replication of EBV in Daudi cells by DNA hybridization assay; format: functional, cell-based; conditions: Homo sapiens

Compound	EC50 (Human betaherpesvirus 5) [µM]	EC50 (Human alphaherpesvirus 2) [µM]	EC50 (Human gammaherpesvirus 4 [1]) [µM]	EC50 (Hepatitis B virus) [µM]	CC50 (HFF [2]) [µM]	EC50 (Murid betaherpesvirus 1) [nM]	CC50 (MEF) [µM]	CC50 (Daudi [3]) [µM]	CC50 (CCRF-CEM) [µM]	EC50 (Human alphaherpesvirus 1 [4]) [µM]	EC50 (Human gammaherpesvirus 4 [5]) [µM]	EC50 (Human alphaherpesvirus 1 [6]) [µM]	CC50 (HFF [7]) [µM]	EC50 (Daudi [8]) [nM]
C#CCNc1nc(N)nc2c1ncn2/C=C1/C[C@@H]1CO	> 74	50	~2	> 10	306	370	> 370	> 185	> 100	20	> 185	6	–	–
C=CCOc1nc(N)nc2c1ncn2/C=C1/C[C@@H]1CO	2.3	8	1.1	11	220	290	> 366	> 183	26	7	> 183	1.5	–	–
CCCOc1nc(N)nc2c1ncn2/C=C1/C[C@@H]1CO	8	10	1.5	4.1	69.4	< 110	363	> 182	32	4	> 182	1	–	–
Nc1nc(NC2CCCCC2)c2ncn(/C=C3/C[C@@H]3CO)c2n1	180	> 50	> 20	> 20	–	–	–	> 159	> 100	> 50	> 159	15	> 318	–
CCCSc1nc(N)nc2c1ncn2/C=C1/C[C@@H]1CO	> 69	10	6.3	5.1	283	1400	343	> 172	> 100	9	> 172	1	–	–
Nc1nc(NCC2CC2)c2ncn(/C=C3/C[C@@H]3CO)c2n1	10.8	> 50	> 20	> 20	–	1700	279	> 175	> 100	25	0.56	2.5	–	7000
COc1nc(N)nc2c1ncn2/C=C1/C[C@@H]1CO	10	16	0.44	> 10	15.8	240	351	146	98	23	3.8	20	–	1000
Nc1nc(NCc2ccccc2)c2ncn(/C=C3/C[C@@H]3CO)c2n1	> 62	52	> 20	> 20	–	–	25	–	> 50	> 100	> 155	> 50	> 310	–
Nc1nc(O)c2ncn(/C=C3/C[C@@H]3CO)c2n1	55	> 50	0.47	> 10	257	390	> 429	> 215	90	50	2.3	45	–	< 340
Nc1nc(NCCO)c2ncn(/C=C3/C[C@@H]3CO)c2n1	> 60	> 50	> 20	> 20	–	11900	> 362	> 181	> 100	> 50	> 181	> 100	–	–
CCCCCSc1nc(N)nc2c1ncn2/C=C1/C[C@@H]1CO	> 80	14	> 20	> 20	215	1500	171	> 157	26	10	39.8	7	–	–
CC(C)Nc1nc(N)nc2c1ncn2/C=C1/C[C@@H]1CO	> 365	> 50	11	> 10	–	–	–	168	> 100	> 38	36.5	15	> 365	–
Nc1nc(NC2CC2)c2ncn(/C=C3/C[C@@H]3CO)c2n1	12	22	0.66	> 10	213	150	367	176	70	15	6.2	20	–	850
C=CCNc1nc(N)nc2c1ncn2/C=C1/C[C@@H]1CO	> 368	21	18.5	20	> 368	330	> 368	> 184	> 100	18	> 184	4	–	–
CCCCCOc1nc(N)nc2c1ncn2/C=C1/C[C@@H]1CO	> 66	4	7.3	7.3	41.9	1450	224	> 165	87	3	23.4	7	–	–
Nc1nc(S)c2ncn(/C=C3/C[C@@H]3CO)c2n1	> 80	> 50	> 20	20	–	> 16000	64	35.3	29	> 50	> 8	> 100	–	–
Nc1nc(OCC2CC2)c2ncn(/C=C3/C[C@@H]3CO)c2n1	8.4	12	12.6	12.6	112	350	278	112	41	8	29.2	7	–	–
